This note sets out measurements from PMC11450741, “Functional Characterization of an Arylsulfonamide-Based Small-Molecule Inhibitor of the NLRP3 Inflammasome” (ACS Chemical Neuroscience, 2024).

This experiment addresses T1, NLRP3 (Mus musculus, UniProt Q8R4B8).
T1 construct: full length recombinant NLRP3 protein (N-Flag, expressed in Expi293F cells)
The experiment in a line: intrinsic fluorescence spectroscopy titration (ex […]/em […] nm); supported by Western blot thermal shift ([…] to […] °C). It counts as binding. On the technique in general: In western blotting, separated proteins are transferred to a membrane and probed.

T1 sequence (Q8R4B8 whole entry): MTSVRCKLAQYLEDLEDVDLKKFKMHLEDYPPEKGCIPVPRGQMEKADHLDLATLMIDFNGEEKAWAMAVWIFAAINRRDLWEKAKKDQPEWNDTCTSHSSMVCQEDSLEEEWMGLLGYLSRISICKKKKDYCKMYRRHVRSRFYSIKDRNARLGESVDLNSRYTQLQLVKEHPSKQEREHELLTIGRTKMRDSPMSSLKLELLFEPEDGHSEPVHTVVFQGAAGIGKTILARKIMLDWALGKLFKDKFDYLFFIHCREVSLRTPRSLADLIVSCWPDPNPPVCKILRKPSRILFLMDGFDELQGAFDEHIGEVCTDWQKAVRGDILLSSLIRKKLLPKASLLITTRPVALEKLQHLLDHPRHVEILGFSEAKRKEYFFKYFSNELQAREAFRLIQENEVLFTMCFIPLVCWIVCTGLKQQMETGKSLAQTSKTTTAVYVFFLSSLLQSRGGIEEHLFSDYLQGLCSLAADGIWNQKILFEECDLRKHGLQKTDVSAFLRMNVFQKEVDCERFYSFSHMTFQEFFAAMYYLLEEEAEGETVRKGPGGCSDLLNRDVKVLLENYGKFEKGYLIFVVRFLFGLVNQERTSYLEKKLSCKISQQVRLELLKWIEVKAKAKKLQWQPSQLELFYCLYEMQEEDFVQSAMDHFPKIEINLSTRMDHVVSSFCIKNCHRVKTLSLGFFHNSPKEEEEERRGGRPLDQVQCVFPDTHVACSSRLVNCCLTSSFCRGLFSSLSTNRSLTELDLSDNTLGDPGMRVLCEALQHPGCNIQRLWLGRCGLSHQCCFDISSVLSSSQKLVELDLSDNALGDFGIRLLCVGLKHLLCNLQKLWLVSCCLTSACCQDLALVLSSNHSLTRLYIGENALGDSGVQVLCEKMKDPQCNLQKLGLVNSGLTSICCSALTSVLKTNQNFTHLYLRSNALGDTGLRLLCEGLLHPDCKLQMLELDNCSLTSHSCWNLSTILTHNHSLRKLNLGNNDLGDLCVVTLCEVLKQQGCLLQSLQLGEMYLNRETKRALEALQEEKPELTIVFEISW

Take `CCCOc1ccc(Cl)cc1CN(CCc1ccc(S(=O)(=O)N2CCOCC2)cc1)C(=O)Cc1ccsc1` [YM-I-26]: the dissociation constant Kd worked out at 560 ± 30.3 nM.

A word on the Kd: it is the constant that tells how readily two partners part at equilibrium.
